Data taken from PMC9551036, “A selective and orally bioavailable VHL-recruiting PROTAC achieves SMARCA2 degradation in vivo” (Nature Communications, 2022).
Values joined by “and” are separate entries in the source; they are usually repeats but may differ in a detail not shown here. Identical values can stand only once. Like-named read-outs stand apart in the source and are kept apart here.

Assays:
Microsomal stability = assay type: in vitro ADME
Description: […] Reactions were terminated by addition of acetonitrile and precipitates separated by centrifugation. Compound concentrations in supernatants were measured by HPLC-MS/MS and clearance was calculated from compound half-lives using the well-stirred liver model.

Plasma protein binding = assay type: in vitro ADME
Description: Binding of compound to plasma proteins was determined by equilibrium dialysis of 3 µmol/L compound in plasma (or plasma dilutions in PBS) against PBS through an 8 kDa molecular-weight cut-off cellulose membrane (RED device, Thermo Fisher) at 37 °C for 5 h. After incubation, aliquots from donor and acceptor compartments were precipitated and the concentrations in the supernatants were determined by quantitative LC-MS/MS. Calibration and quality control samples were prepared using blank plasma and internal standard. The fraction unbound was calculated as ratio of the compound concentration in the acceptor compartment to the concentration in the donor compartment.

[1] = Bidirectional permeability measurement in Caco-2 cells; assay type: in vitro ADME; conditions: human
In short: (§1)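 Caco-2 monolayers grown 14–21 days, preincubated 24 h with medium containing 1 µM compound; bidirectional transport sampled up to 2 h, quantified by LC-MS/MS, ± 5 µM zosuquidar (P-gp inhibitor). Papp,AB and Papp,BA from receiver amount, donor C0, area and time; efflux ratio = Papp,BA/Papp,AB (duplicate means). TEER checked per plate.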

P-gp = assay: as above; assay type: in vitro ADME; conditions: human, Caco-2, pH 7.4, with zosuquidar 5 µM
In short: as §1

SMARCA2 = SMARCA2 (Homo sapiens, UniProt P51531); assay: SMARCA2 capillary electrophoresis protein assay in other cell lines (A549, NCI-H1568, HCT116, LU99, HCC-364, HCT-15, HCC4006, SK-N-AS); assay type: cell-based; design: endogenous in cells; host or cells: RKO, NCI-H1568, A549, HCT116, LU99, HCC-364, HCT-15, HCC4006, SK-N-AS; conditions: for DC50: read-out: EC50 (protein remaining)
Sequence of SMARCA2 (P51531 whole entry): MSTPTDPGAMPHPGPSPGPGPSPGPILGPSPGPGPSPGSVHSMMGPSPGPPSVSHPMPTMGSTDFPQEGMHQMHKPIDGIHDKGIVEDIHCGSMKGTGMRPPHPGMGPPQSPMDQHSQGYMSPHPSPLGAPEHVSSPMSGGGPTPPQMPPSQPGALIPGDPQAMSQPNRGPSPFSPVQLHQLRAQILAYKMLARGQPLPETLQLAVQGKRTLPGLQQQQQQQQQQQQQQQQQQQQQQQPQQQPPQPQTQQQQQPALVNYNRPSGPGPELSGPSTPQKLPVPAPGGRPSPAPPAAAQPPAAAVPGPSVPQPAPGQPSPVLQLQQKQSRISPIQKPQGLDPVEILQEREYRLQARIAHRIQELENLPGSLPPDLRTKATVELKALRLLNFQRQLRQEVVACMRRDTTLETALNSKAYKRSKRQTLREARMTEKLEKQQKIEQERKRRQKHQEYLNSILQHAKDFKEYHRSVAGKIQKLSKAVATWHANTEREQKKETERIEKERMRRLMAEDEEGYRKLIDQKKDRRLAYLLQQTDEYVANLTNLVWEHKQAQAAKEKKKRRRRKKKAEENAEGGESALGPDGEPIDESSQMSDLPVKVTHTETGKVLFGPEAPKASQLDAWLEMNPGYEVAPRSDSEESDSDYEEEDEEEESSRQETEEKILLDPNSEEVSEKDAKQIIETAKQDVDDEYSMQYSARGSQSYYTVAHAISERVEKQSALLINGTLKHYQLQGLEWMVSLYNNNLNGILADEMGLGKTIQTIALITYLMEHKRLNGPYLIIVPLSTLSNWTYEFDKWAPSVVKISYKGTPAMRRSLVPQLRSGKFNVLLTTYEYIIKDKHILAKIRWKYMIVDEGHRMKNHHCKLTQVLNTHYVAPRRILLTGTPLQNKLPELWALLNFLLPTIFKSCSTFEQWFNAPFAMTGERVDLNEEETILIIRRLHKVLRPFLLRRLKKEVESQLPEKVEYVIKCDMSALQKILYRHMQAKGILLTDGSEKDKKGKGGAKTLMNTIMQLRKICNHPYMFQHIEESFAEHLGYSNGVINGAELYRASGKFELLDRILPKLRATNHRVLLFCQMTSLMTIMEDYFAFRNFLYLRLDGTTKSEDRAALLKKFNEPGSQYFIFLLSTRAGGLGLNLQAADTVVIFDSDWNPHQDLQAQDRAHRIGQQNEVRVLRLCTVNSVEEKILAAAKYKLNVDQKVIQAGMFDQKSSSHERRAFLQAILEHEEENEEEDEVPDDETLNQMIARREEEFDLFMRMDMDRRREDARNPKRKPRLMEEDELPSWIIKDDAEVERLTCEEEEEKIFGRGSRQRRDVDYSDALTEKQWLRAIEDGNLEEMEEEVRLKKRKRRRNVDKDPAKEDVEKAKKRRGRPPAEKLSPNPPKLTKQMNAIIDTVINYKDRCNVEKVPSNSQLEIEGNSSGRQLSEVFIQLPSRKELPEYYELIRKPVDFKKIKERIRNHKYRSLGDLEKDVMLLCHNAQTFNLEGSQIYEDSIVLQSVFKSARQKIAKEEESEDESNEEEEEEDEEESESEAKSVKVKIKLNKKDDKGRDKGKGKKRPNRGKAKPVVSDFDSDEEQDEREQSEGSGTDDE
Description: 130,000–200,000 cells were seeded in 24-well plates and incubated until settled down or overnight. Compounds were dissolved in DMSO and added to cells in indicated concentrations using a digital dispenser following an optional media change. Cells were incubated for 4 or 18 h as indicated. For SMARCA2/4 half-life determination, 150,000 or 200,000 cells were seeded in 24-well plates. The next day, 50 µg/ml cycloheximide (Sigma) was added and cells were incubated for 1–24 h. For SMARCA2/4 re-synthesis measurements, 200,000 cells were seeded in 24-well plates. The next day, 100 nM compound 6 was added for 4 h to degrade SMARCA2/4, and a sample was taken as baseline for normalisation. To allow re-synthesis, a VHL binder (compound 32, 25 or 50 µM) was then added for 3 or 24 h. Medium was removed, cells were washed with PBS and lysed with 80 µl Lysis Buffer (MSD Tris Lysis Buffer (#R60TX-2) + Halt Inhibitor Cocktail (100x) + Benzonase 0.5 µL/ml). Samples were frozen at −80 °C and thawed at room temperature before use. Samples were transferred to a V-bottom plate and insoluble debris was pelleted by centrifugation for 5 min at maximum speed. The supernatant was transferred to a fresh plate. Master Mix and Ladder were prepared according to manufacturer’s instructions for 12–230 kDa Wes Separation Module, 8 × 25 capillary cartridges, Protein Simple #SM-W004 with Anti-Rabbit Detection Module for Wes, Peggy Sue or Sally Sue, Protein Simple #DM-001. 4.8 µl lysate were mixed with 1.2 µl Master Mix to achieve a protein concentration of ~0.5 µg/µl. Antibodies were diluted in Antibody Diluent II (SMARCA2 Sigma #HPA029981 RRID:AB_10602406 1:25–100, SMARCA4 Cell Signalling #49360 clone D1Q7F RRID:AB_2728743 1:15–120 or Abcam #ab110641 clone EPNCIR111A RRID:AB_10861578 1:60, GAPDH Abcam #ab9485 RRID:AB_307275 1:250). Wes plates were prepared and run according to manufacturer’s instructions. Proteins were quantified with accompanying Compass Software. SMARCA2/4 protein levels were normalised to GAPDH. […] Where applicable, curves were fitted using a 4-parametric logistic model.

[2] = HCC4006_SM2, four-parameter fit

SMILES: Cc1ncsc1-c1ccc(C(CCC(C)CCN2CCC(c3ccc4c(c3)n(C3CCCC3)c3nc(=O)c5c(Br)cccc5n43)CC2)NC(=O)C2CC(O)CN2C(=O)C(NC(=O)C2(F)CC2)C(C)(C)C)cc1 (stereo not drawn) [ACBI2]
- Mic. Stab. Human (Microsomal stability; human liver microsomes): <24 % QH
- Mic. Stab. Human QH (Microsomal stability; human liver microsomes): <24.400 <24.400 <24.400 <24.400%
- Mic. Stab. Mouse (Microsomal stability; mouse liver microsomes): <24 % QH
- Mic. Stab. Mouse QH (Microsomal stability; mouse liver microsomes): <24.200 <24.200 <24.200 <24.200%
- Mic. Stab. Rat (Microsomal stability; rat liver microsomes): <23 % QH
- Mic. Stab. Rat QH (Microsomal stability; rat liver microsomes): <23.100 <23.100 <23.100 <23.100%
- PPB fu 10% Human (Plasma protein binding; 10% human): < 0.054%
- PPB fu 10% Rat (Plasma protein binding; 10% rat): < 0.053% and < 0.048%
- fraction unbound at 5 h, 3 µmol/L (Plasma protein binding; bovine, 10% calf plasma dilution in PBS, 10% calf, fraction unbound, read-out: PPB fu 10% Calf): 0.0035
- fraction unbound at 5 h, 3 µmol/L (Plasma protein binding; bovine, 10% plasma (plasma dilution in PBS), 10% calf, read-out: PPB fu 10% Calf): 0.00349
- fraction unbound at 5 h, 3 µmol/L (Plasma protein binding; human, 10% plasma (plasma dilution in PBS), 10% human, read-out: PPB fu 10% Human): < 0.00045
- fraction unbound at 5 h, 3 µmol/L (Plasma protein binding; human, plasma, human, fraction unbound, read-out: PPB fu Human): < 0.0005
- fraction unbound at 5 h, 3 µmol/L (Plasma protein binding; mouse, 10% plasma (plasma dilution in PBS), 10% mouse, read-out: PPB fu 10% Mouse): < 0.00051
- fraction unbound at 5 h, 3 µmol/L (Plasma protein binding; mouse, plasma, mouse, fraction unbound, read-out: PPB fu Mouse): < 0.0005
- fraction unbound at 5 h, 3 µmol/L (Plasma protein binding; rat, 10% plasma (plasma dilution in PBS), 10% rat, read-out: PPB fu 10% Rat): < 0.00054
- fraction unbound at 5 h, 3 µmol/L (Plasma protein binding; rat, plasma, rat, fraction unbound, read-out: PPB fu Rat): < 0.0005
- Papp A→B at 1 µM ([1]; Caco-2, pH 7.4, Caco-2, read-out: Caco-2 Pab): 2 ± 0.2 ×10⁻⁶ cm/s
- Papp A→B at 1 µM ([1]; Caco-2, pH 7.4, Modified Caco-2, read-out: Modified Caco-2 Pab): 9 ± 9 ×10⁻⁶ cm/s
- Papp A→B at 1 µM (P-gp; Modified Caco-2 + PGPi (Zosuquidar), read-out: Modified Caco-2 + PGPi (Zosuquidar) Pab): 8 ± 4 ×10⁻⁶ cm/s
- Papp B→A at 2 h, 1 µM (P-gp; Modified Caco-2, b to a, + PGPi (Zosuquidar), read-out: Modified Caco-2 Pba + PGPi (Zosuquidar)): 11 ×10⁻⁶ cm/s
- Bottom (% protein remaining, four-parameter fit) (SMARCA2; A549, 4h): 4.929%
- HillSlope (protein remaining) (SMARCA2; A549, 4h): -1.225
- LogEC50 (protein remaining) (SMARCA2; A549, 4h): -8.097 log10(mol/l)
- Top (% protein remaining, four-parameter fit) (SMARCA2; A549, 4h): 100.9%
- % protein remaining (SMARCA2; A549, 4h, conc 1.00001e-10 mol/l): 84.5708% and 85.2048%
- % protein remaining (SMARCA2; A549, 4h, conc 1.52416e-10 mol/l): 108.644%
- % protein remaining (SMARCA2; A549, 4h, conc 3.1623e-10 mol/l): 89.402% and 93.1131%
- % protein remaining (SMARCA2; A549, 4h, conc 4.57247e-10 mol/l): 121.415%
- % protein remaining (SMARCA2; A549, 4h, conc 1.00001e-9 mol/l): 110.304% and 110.867%
- % protein remaining (SMARCA2; A549, 4h, conc 1.37174e-9 mol/l): 89.7364%
- % protein remaining (SMARCA2; A549, 4h, conc 3.1623e-9 mol/l): 63.5379% and 69.9208%
- % protein remaining (SMARCA2; A549, 4h, conc 4.11523e-9 mol/l): 69.7779%
- % protein remaining (SMARCA2; A549, 4h, conc 1.00001e-8 mol/l): 46.41% and 40.9559%
- % protein remaining (SMARCA2; A549, 4h, conc 1.23457e-8 mol/l): 53.3153%
- % protein remaining (SMARCA2; A549, 4h, conc 3.1623e-8 mol/l): 21.5929% and 21.3671%
- % protein remaining (SMARCA2; A549, 4h, conc 3.7037e-8 mol/l): 16.6414%
- % protein remaining (SMARCA2; A549, 4h, conc 1.00001e-7 mol/l): 9.055% and 9.573%
- % protein remaining (SMARCA2; A549, 4h, conc 1.11111e-7 mol/l): 6.719%
- % protein remaining (SMARCA2; A549, 4h, conc 3.1623e-7 mol/l): 3.884% and 5.2896%
- % protein remaining (SMARCA2; A549, 4h, conc 3.33333e-7 mol/l): 5.288%
- % protein remaining (SMARCA2; A549, 4h, conc 1e-6 mol/l): 9.764%
- % protein remaining (SMARCA2; A549, 4h, conc 1.00001e-6 mol/l): 2.893% and 6.667%
- % protein remaining (SMARCA2; A549, 4h, conc 3.1623e-6 mol/l): 2.881% and 4.488%
- DC50 (SMARCA2; A549, 4h): 8 nM
- Bottom (% protein remaining, four-parameter fit) (SMARCA2; A549, 8h): 4.658%
- HillSlope (protein remaining) (SMARCA2; A549, 8h): -1.748
- LogEC50 (protein remaining) (SMARCA2; A549, 8h): -8.366 log10(mol/l)
- Top (% protein remaining, four-parameter fit) (SMARCA2; A549, 8h): 107%
- % protein remaining (SMARCA2; A549, 8h, conc 1.52416e-10 mol/l): 110.756% and 87.6939%
- % protein remaining (SMARCA2; A549, 8h, conc 4.57247e-10 mol/l): 98.1008% and 121.894%
- % protein remaining (SMARCA2; A549, 8h, conc 1.37174e-9 mol/l): 100.189% and 99.1847%
- % protein remaining (SMARCA2; A549, 8h, conc 3.7037e-8 mol/l): 13.1114% and 6.497%
- % protein remaining (SMARCA2; A549, 8h, conc 1.11111e-7 mol/l): 4.666% and 4.638%
- % protein remaining (SMARCA2; A549, 8h, conc 3.33333e-7 mol/l): 3.034% and 3.636%
- % protein remaining (SMARCA2; A549, 8h, conc 1e-6 mol/l): 2.595% and 3.383%
- % protein remaining (SMARCA2; A549, 8h, conc 3e-6 mol/l): 3.585% and 2.581%
- DC50 (SMARCA2; A549, 8h): 4.31 nM
- Bottom (% protein remaining, four-parameter fit) (SMARCA2; A549, 18h): 5.224%
- HillSlope (protein remaining) (SMARCA2; A549, 18h): -3.553
- LogEC50 (protein remaining) (SMARCA2; A549, 18h): -8.518 log10(mol/l)
- Top (% protein remaining, four-parameter fit) (SMARCA2; A549, 18h): 104.8%
- % protein remaining (SMARCA2; A549, 18h, conc 1.52416e-10 mol/l): 87.6939%
- % protein remaining (SMARCA2; A549, 18h, conc 4.57247e-10 mol/l): 121.894%
- % protein remaining (SMARCA2; A549, 18h, conc 1.37174e-9 mol/l): 99.1847%
- % protein remaining (SMARCA2; A549, 18h, conc 4.11523e-9 mol/l): 30.1189%
- % protein remaining (SMARCA2; A549, 18h, conc 1.23457e-8 mol/l): 11.5462%
- % protein remaining (SMARCA2; A549, 18h, conc 3.7037e-8 mol/l): 6.497%
- % protein remaining (SMARCA2; A549, 18h, conc 1.11111e-7 mol/l): 4.638%
- % protein remaining (SMARCA2; A549, 18h, conc 3.33333e-7 mol/l): 3.636%
- % protein remaining (SMARCA2; A549, 18h, conc 1e-6 mol/l): 3.383%
- % protein remaining (SMARCA2; A549, 18h, conc 3e-6 mol/l): 2.581%
- DC50 (SMARCA2; A549, 18h): 3.03 nM
- SMARCA2 degradation in sensitive cell lines (SMARCA2; A549 and NCI-H1568): rapid and complete degradation of SMARCA2
- Bottom (best-fit value, % protein remaining) (SMARCA2; [2]): 15.27%
- HillSlope (SMARCA2; [2]): -1.75
